From patent publication EP4707284A1, “HETEROCYCLIC COMPOUND AND USE THEREOF” (Otsuka Pharmaceutical Co., Ltd., priority 2023, dated 2024)

Format: physicochemical
Conditions: Tris-hydrochloric acid buffer (pH 7.5) 50 mmol/L, magnesium chloride 5 mmol/L, evaluation compound 1 µmol/L, 37°C, 60 minutes, average of duplicate
Description: The conversion from the evaluation compounds to brexpiprazole in a buffer (i.e., the stability of the evaluation compounds) was evaluated.
The Example 1 compound was dissolved in acetonitrile/water (1:1, v/v) to 10 mmol/L and further diluted with acetonitrile/water (1:1, v/v) to 100 µmol/L for use.
The other Example compounds and the Reference Example 5 compound to Reference Example 7 compound were each dissolved in DMSO to 10 mmol/L and further diluted with acetonitrile to 100 µmol/L for use, except for the following compounds.
The compounds of Examples 52, 95, 96, 117, and 130 (EX 52, EX 95, EX 96, EX 117, and EX 130) were dissolved in acetonitrile/water (8:2, v/v) to 10 mmol/L and further diluted with acetonitrile to 100 µmol/L for use.
The compound of Example 97 (EX 97) was dissolved in acetonitrile/water (8:2, v/v) to 10 mmol/L and further diluted with acetonitrile/water (8:2, v/v) to 100 µmol/L for use.
The compounds of Examples 15 and 116 (EX 15 and EX 116) were dissolved in DMSO to 1 mmol/L and further diluted with acetonitrile to 100 µmol/L for use.
These evaluation compound solutions were prepared at the time of use.
The reaction was conducted by preparing each reaction solution such that the final concentration of each component was as follows. The test was conducted in duplicate.
For the compounds of Examples 1 to 8, 10 to 19, 26 to 27, 37, 50, 87 to 89, 91, 116, 121, 123, 150, and 151 (EX 1 to EX 8, EX 10 to EX 19, EX 26 to EX 27, EX 37, EX 50, EX 87 to EX 89, EX 91, EX 116, EX 121, EX 123, EX 150, and EX 151), and the compounds of Reference Examples 5 to 7 (REX 5 to REX 7), the reaction solution without the evaluation compound (198 µl) was pre-incubated at 37°C for 3 minutes, and then each of the evaluation compound solutions (2 µl) was added and stirred; thereafter, the reaction was started at 37°C. At 0 minutes or 60 minutes after the start of the reaction, the reaction was stopped by adding and stirring a reaction stop solution (1000 µl) composed of acetonitrile/isopropanol (4:1, v/v) containing internal standard substances. However, the 0-minute reaction sample (198 µl) was prepared by adding the evaluation compound (2 µl) after adding the reaction stop solution (1000 µl). The samples after stopping the reaction were used as the measurement samples. Calibration curve samples with the same composition were prepared (final concentrations of the evaluation compounds and brexpiprazole: 0.01, 0.1, and 1 µmol/L, with the proviso that for the evaluation compounds only, the 0-minute reaction samples were also used as calibration curve samples for 1 µmol/L).
For the compounds of Examples 24 to 25, 28 to 29, 32 to 36, 40 to 49, 51 to 60, 62 to 64, 66 to 77, 80 to 86, 90, 92 to 111, 113, 115, 117 to 120, 122, 124 to 130, 132 to 147, and 152 to 160 (EX 24 to EX 25, EX 28 to EX 29, EX 32 to EX 36, EX 40 to EX 49, EX 51 to EX 60, EX 62 to EX 64, EX 66 to EX 77, EX 80 to EX 86, EX 90, EX 92 to EX 111, EX 113, EX 115, EX 117 to EX 120, EX 122, EX 124 to EX 130, EX 132 to EX 147, and EX 152 to EX 160), the reaction solution without the evaluation compound (148.5 µl) was pre-incubated at 37°C for 3 minutes, and then each of the evaluation compound solutions (1.5 µl) was added and stirred; thereafter, the reaction was started at 37°C. At 0 minutes or 60 minutes after the start of the reaction, the reaction was stopped by adding and stirring a reaction stop solution (600 µl) composed of acetonitrile/isopropanol (4:1, v/v) containing internal standard substances. However, the 0-minute reaction sample (148.5 µl) was prepared by adding the evaluation compound (1.5 µl) after adding the reaction stop solution (600 µl). The samples after stopping the reaction were used as the measurement samples. […]

| Concentration of brexpiprazole formed | Concentration of evaluation compound decreased | SMILES |
| --- | --- | --- |
| 0 nM | 20 nM | CCOC(=O)C[C@@H](OP(=O)([O-])OC[N+]1(CCCCOc2ccc3ccc(=O)[nH]c3c2)CCN(c2cccc3sccc23)CC1)C(=O)OCC [EX 111] |
| 0 nM | 0 nM | CCCCCCCC(=O)OCOP(=O)([O-])OC[N+]1(CCCCOc2ccc3ccc(=O)[nH]c3c2)CCN(c2cccc3sccc23)CC1 [EX 27] |
| 0 nM | -20 nM | CCOCCOC(=O)[C@@H](C)OP(=O)([O-])OC[N+]1(CCCCOc2ccc3ccc(=O)[nH]c3c2)CCN(c2cccc3sccc23)CC1 [EX 109] |
| 0 nM | 10 nM | CCOC(=O)CC(C)(C)CC(=O)OCOP(=O)([O-])OC[N+]1(CCCCOc2ccc3ccc(=O)[nH]c3c2)CCN(c2cccc3sccc23)CC1 [EX 32] |
| -10 nM | -70 nM | COCCC(=O)OCOP(=O)([O-])OC[N+]1(CCCCOc2ccc3ccc(=O)[nH]c3c2)CCN(c2cccc3sccc23)CC1 [EX 28] |
| 0 nM | 0 nM | O=C(O)CCCC(=O)OCOP(=O)([O-])OC[N+]1(CCCCOc2ccc3ccc(=O)[nH]c3c2)CCN(c2cccc3sccc23)CC1 [EX 70] |
| 0 nM | 20 nM | COCCOP(=O)([O-])OC[N+]1(CCCCOc2ccc3ccc(=O)[nH]c3c2)CCN(c2cccc3sccc23)CC1 [EX 12, (4-(benzo[b]thiophen-4-yl)-1-(4-((2-oxo-1,2-dihydroquinolin-7-yl)oxy)butyl)piperazin-1-ium-1-yl)methyl (2-methoxyethyl) phosphate] |
| 0 nM | 0 nM | COCCOC(=O)OCOP(=O)([O-])OC[N+]1(CCCCOc2ccc3ccc(=O)[nH]c3c2)CCN(c2cccc3sccc23)CC1 [EX 33] |
| 0 nM | 200 nM | CCOC(=O)[C@H](C)OP(=O)([O-])OC[N+]1(CCCCOc2ccc3ccc(=O)[nH]c3c2)CCN(c2cccc3sccc23)CC1 [EX 104] |
| 0 nM | 20 nM | CCOC(=O)CNP(=O)([O-])OC[N+]1(CCCCOc2ccc3ccc(=O)[nH]c3c2)CCN(c2cccc3sccc23)CC1 [EX 154] |
| 0 nM | -110 nM | CC(C)C(=O)OCOP(=O)([O-])OC[N+]1(CCCCOc2ccc3ccc(=O)[nH]c3c2)CCN(c2cccc3sccc23)CC1 [EX 24] |
| 0 nM | 120 nM | CCOC(=O)CCCCCOC(=O)OCOP(=O)([O-])OC[N+]1(CCCCOc2ccc3ccc(=O)[nH]c3c2)CCN(c2cccc3sccc23)CC1 [EX 144] |
| 0 nM | -10 nM | CCOC(=O)[C@@H](C)OP(=O)([O-])OC[N+]1(CCCCOc2ccc3ccc(=O)[nH]c3c2)CCN(c2cccc3sccc23)CC1 [EX 103] |
| 0 nM | -10 nM | CC(C)(C)OC(=O)CCCC(=O)OCOP(=O)([O-])OC[N+]1(CCCCOc2ccc3ccc(=O)[nH]c3c2)CCN(c2cccc3sccc23)CC1 [EX 69] |

Second part, the molecule before the results:

| SMILES | Concentration of brexpiprazole formed | Concentration of evaluation compound decreased |
| --- | --- | --- |
| O=c1ccc2ccc(OCCCC[N+]3(COP(=O)([O-])OCCCCCCCO)CCN(c4cccc5sccc45)CC3)cc2[nH]1 [EX 45] | 0 nM | 70 nM |
| COCCOCCOCCOC(=O)OCOP(=O)([O-])OC[N+]1(CCCCOc2ccc3ccc(=O)[nH]c3c2)CCN(c2cccc3sccc23)CC1 [EX 35] | 0 nM | -20 nM |
| O=c1ccc2ccc(OCCCC[N+]3(COP(=O)([O-])OCCN4CCCCC4)CCN(c4cccc5sccc45)CC3)cc2[nH]1 [EX 118] | 0 nM | 60 nM |
| COCCNP(=O)([O-])OC[N+]1(CCCCOc2ccc3ccc(=O)[nH]c3c2)CCN(c2cccc3sccc23)CC1 [EX 152] | 0 nM | 10 nM |
| O=C(OCOP(=O)([O-])OC[N+]1(CCCCOc2ccc3ccc(=O)[nH]c3c2)CCN(c2cccc3sccc23)CC1)OC1CCOCC1 [EX 141] | 0 nM | 20 nM |
| O=c1ccc2ccc(OCCCC[N+]3(COP(=O)([O-])OCC#CCCl)CCN(c4cccc5sccc45)CC3)cc2[nH]1 [EX 63] | 0 nM | 20 nM |
| CC(=O)Oc1ccccc1C(=O)OCOP(=O)([O-])OC[N+]1(CCCCOc2ccc3ccc(=O)[nH]c3c2)CCN(c2cccc3sccc23)CC1 [EX 80] | 0 nM | 170 nM |
| COP(=O)([O-])OC[N+]1(CCCCOc2ccc3ccc(=O)[nH]c3c2)CCN(c2cccc3sccc23)CC1 [EX 87] | 0 nM | 0 nM |
| CC(C)(CO)COP(=O)([O-])OC[N+]1(CCCCOc2ccc3ccc(=O)[nH]c3c2)CCN(c2cccc3sccc23)CC1 [EX 48] | 0 nM | -30 nM |
| CC(C)(O)CCOP(=O)([O-])OC[N+]1(CCCCOc2ccc3ccc(=O)[nH]c3c2)CCN(c2cccc3sccc23)CC1 [EX 41] | 0 nM | 70 nM |
| O=c1ccc2ccc(OCCCC[N+]3(COP(=O)([O-])OCCCCBr)CCN(c4cccc5sccc45)CC3)cc2[nH]1 [EX 62] | 0 nM | 180 nM |
| O=C(O)CCCCCOC(=O)OCOP(=O)([O-])OC[N+]1(CCCCOc2ccc3ccc(=O)[nH]c3c2)CCN(c2cccc3sccc23)CC1 [EX 145] | 0 nM | 30 nM |
| CC(C)(C)OC(=O)CNP(=O)([O-])OC[N+]1(CCCCOc2ccc3ccc(=O)[nH]c3c2)CCN(c2cccc3sccc23)CC1 [EX 155] | 0 nM | 160 nM |
| CC1(C)OCC(NC(=O)CCCC(=O)OCOP(=O)([O-])OC[N+]2(CCCCOc3ccc4ccc(=O)[nH]c4c3)CCN(c3cccc4sccc34)CC2)CO1 [EX 74] | 0 nM | 50 nM |
| O=c1ccc2ccc(OCCCC[N+]3(COP(=O)([O-])OCCCOc4ccccc4)CCN(c4cccc5sccc45)CC3)cc2[nH]1 [EX 84] | 0 nM | 10 nM |
| O=C(OCOP(=O)([O-])OC[N+]1(CCCCOc2ccc3ccc(=O)[nH]c3c2)CCN(c2cccc3sccc23)CC1)N1CCOCC1 [EX 160] | 0 nM | -10 nM |
| CC(C)(C)C(=O)OCCCCCCOP(=O)([O-])OC[N+]1(CCCCOc2ccc3ccc(=O)[nH]c3c2)CCN(c2cccc3sccc23)CC1 [EX 102] | 0 nM | 70 nM |
